From the NIST ThermoML archive (doi:10.1021/je700261b)
± gives the expanded uncertainty stated by the source.

Test: xn = mol fraction of the nth substance listed
Conditions: Liquid

CCCCO [butan-1-ol] + O=C=O
mass density (332.94 K, 21042 kPa, x2 = 0.9698): 765.72 ± 0.78 kg/m3
mass density (332.94 K, 21997 kPa, x2 = 0.9698): 776.05 ± 0.77 kg/m3
mass density (332.94 K, 22013 kPa, x2 = 0.0251): 799.22 ± 0.65 kg/m3
mass density (332.94 K, 22983 kPa, x2 = 0.9698): 785.85 ± 0.76 kg/m3
mass density (332.94 K, 23023 kPa, x2 = 0.0251): 800 ± 0.66 kg/m3
mass density (332.94 K, 23838 kPa, x2 = 0.9698): 793.78 ± 0.74 kg/m3
mass density (332.94 K, 24078 kPa, x2 = 0.0251): 800.8 ± 0.67 kg/m3
mass density (332.94 K, 25033 kPa, x2 = 0.0251): 801.51 ± 0.68 kg/m3
mass density (332.96 K, 2025 kPa, x2 = 0.0857): 785.34 ± 0.47 kg/m3
mass density (332.96 K, 3025 kPa, x2 = 0.0857): 786.35 ± 0.48 kg/m3
mass density (332.96 K, 3995 kPa, x2 = 0.0857): 787.3 ± 0.49 kg/m3
mass density (332.96 K, 5006 kPa, x2 = 0.0857): 788.3 ± 0.49 kg/m3
mass density (332.96 K, 6029 kPa, x2 = 0.0857): 789.27 ± 0.5 kg/m3
mass density (332.96 K, 6996 kPa, x2 = 0.0857): 790.2 ± 0.51 kg/m3
mass density (332.96 K, 8001 kPa, x2 = 0.0857): 791.2 ± 0.52 kg/m3
mass density (332.96 K, 9060 kPa, x2 = 0.0857): 792.17 ± 0.53 kg/m3
mass density (332.96 K, 10005 kPa, x2 = 0.0857): 793.04 ± 0.54 kg/m3
mass density (332.96 K, 11020 kPa, x2 = 0.0857): 793.96 ± 0.55 kg/m3
mass density (332.96 K, 12043 kPa, x2 = 0.0857): 794.89 ± 0.55 kg/m3
mass density (332.96 K, 13021 kPa, x2 = 0.0857): 795.74 ± 0.56 kg/m3
mass density (332.96 K, 14023 kPa, x2 = 0.0857): 796.64 ± 0.57 kg/m3
mass density (332.96 K, 15013 kPa, x2 = 0.0857): 797.55 ± 0.58 kg/m3
mass density (332.96 K, 15989 kPa, x2 = 0.0857): 798.3 ± 0.59 kg/m3
mass density (332.96 K, 17015 kPa, x2 = 0.0857): 799.17 ± 0.6 kg/m3
mass density (332.96 K, 18001 kPa, x2 = 0.0857): 799.98 ± 0.61 kg/m3
mass density (332.96 K, 18996 kPa, x2 = 0.0857): 800.8 ± 0.62 kg/m3
mass density (332.96 K, 20012 kPa, x2 = 0.0857): 801.65 ± 0.63 kg/m3
mass density (332.96 K, 21010 kPa, x2 = 0.0857): 802.47 ± 0.64 kg/m3
mass density (332.96 K, 22025 kPa, x2 = 0.0857): 803.27 ± 0.65 kg/m3
mass density (332.96 K, 22983 kPa, x2 = 0.0857): 804.05 ± 0.66 kg/m3
mass density (332.96 K, 24061 kPa, x2 = 0.0857): 804.91 ± 0.67 kg/m3
mass density (332.96 K, 25000 kPa, x2 = 0.0857): 805.68 ± 0.67 kg/m3
mass density (332.99 K, 11100 kPa, x2 = 0.4972): 807.58 ± 0.53 kg/m3
mass density (332.99 K, 12062 kPa, x2 = 0.4972): 809.21 ± 0.54 kg/m3
mass density (332.99 K, 13082 kPa, x2 = 0.4972): 810.88 ± 0.55 kg/m3
mass density (332.99 K, 14087 kPa, x2 = 0.8663): 752.33 ± 1.2 kg/m3
mass density (332.99 K, 14115 kPa, x2 = 0.4972): 812.58 ± 0.56 kg/m3
mass density (332.99 K, 15053 kPa, x2 = 0.8663): 762.95 ± 0.71 kg/m3
mass density (332.99 K, 15061 kPa, x2 = 0.4972): 814.12 ± 0.56 kg/m3
mass density (332.99 K, 16035 kPa, x2 = 0.4972): 815.66 ± 0.57 kg/m3
mass density (332.99 K, 16081 kPa, x2 = 0.8663): 772.94 ± 0.69 kg/m3
mass density (332.99 K, 17073 kPa, x2 = 0.8663): 781.43 ± 0.68 kg/m3
mass density (332.99 K, 17108 kPa, x2 = 0.4972): 817.32 ± 0.58 kg/m3
mass density (332.99 K, 18040 kPa, x2 = 0.4972): 818.75 ± 0.58 kg/m3
mass density (332.99 K, 18052 kPa, x2 = 0.8663): 789.26 ± 0.67 kg/m3
mass density (332.99 K, 19036 kPa, x2 = 0.4972): 820.22 ± 0.59 kg/m3
mass density (332.99 K, 19049 kPa, x2 = 0.8663): 796.49 ± 0.67 kg/m3
mass density (332.99 K, 20021 kPa, x2 = 0.8663): 803.04 ± 0.66 kg/m3
mass density (332.99 K, 20051 kPa, x2 = 0.4972): 821.73 ± 0.6 kg/m3
mass density (332.99 K, 21046 kPa, x2 = 0.8663): 809.49 ± 0.66 kg/m3
mass density (332.99 K, 21048 kPa, x2 = 0.4972): 823.17 ± 0.6 kg/m3
mass density (332.99 K, 22048 kPa, x2 = 0.4972): 824.6 ± 0.61 kg/m3
mass density (332.99 K, 22064 kPa, x2 = 0.8663): 815.51 ± 0.66 kg/m3
mass density (332.99 K, 23005 kPa, x2 = 0.8663): 820.74 ± 0.66 kg/m3
mass density (332.99 K, 23047 kPa, x2 = 0.4972): 826 ± 0.62 kg/m3
mass density (332.99 K, 24018 kPa, x2 = 0.4972): 827.36 ± 0.62 kg/m3
mass density (332.99 K, 24028 kPa, x2 = 0.8663): 826.19 ± 0.66 kg/m3
mass density (332.99 K, 25056 kPa, x2 = 0.4972): 828.77 ± 0.63 kg/m3
mass density (332.99 K, 25067 kPa, x2 = 0.8663): 831.43 ± 0.7 kg/m3
mass density (333 K, 12077 kPa, x2 = 0.5965): 809.05 ± 0.73 kg/m3
mass density (333 K, 13047 kPa, x2 = 0.5965): 811.32 ± 0.56 kg/m3
mass density (333 K, 14101 kPa, x2 = 0.5965): 813.7 ± 0.56 kg/m3
mass density (333 K, 15079 kPa, x2 = 0.5965): 815.86 ± 0.57 kg/m3
mass density (333 K, 16069 kPa, x2 = 0.5965): 817.96 ± 0.57 kg/m3
mass density (333 K, 17045 kPa, x2 = 0.5965): 820 ± 0.58 kg/m3
mass density (333 K, 18064 kPa, x2 = 0.5965): 822.1 ± 0.58 kg/m3
mass density (333 K, 19045 kPa, x2 = 0.5965): 824.02 ± 0.59 kg/m3
mass density (333 K, 20044 kPa, x2 = 0.5965): 825.94 ± 0.59 kg/m3
mass density (333 K, 21039 kPa, x2 = 0.5965): 827.8 ± 0.6 kg/m3
mass density (333 K, 22043 kPa, x2 = 0.5965): 829.66 ± 0.6 kg/m3
mass density (333 K, 23048 kPa, x2 = 0.5965): 831.48 ± 0.61 kg/m3
mass density (333 K, 24011 kPa, x2 = 0.5965): 833.21 ± 0.62 kg/m3
mass density (333 K, 25086 kPa, x2 = 0.5965): 835.1 ± 0.62 kg/m3
mass density (333.08 K, 6035 kPa, x2 = 0.1842): 792 ± 0.5 kg/m3
mass density (333.08 K, 7047 kPa, x2 = 0.1842): 793.11 ± 0.51 kg/m3
mass density (333.08 K, 8021 kPa, x2 = 0.1842): 794.16 ± 0.52 kg/m3
mass density (333.08 K, 9035 kPa, x2 = 0.1842): 795.25 ± 0.53 kg/m3
mass density (333.08 K, 10030 kPa, x2 = 0.1842): 796.3 ± 0.53 kg/m3
mass density (333.08 K, 11057 kPa, x2 = 0.1842): 797.37 ± 0.54 kg/m3
mass density (333.08 K, 12025 kPa, x2 = 0.1842): 798.41 ± 0.55 kg/m3
mass density (333.08 K, 13041 kPa, x2 = 0.1842): 799.39 ± 0.56 kg/m3
mass density (333.08 K, 14034 kPa, x2 = 0.1842): 800.34 ± 0.57 kg/m3
mass density (333.08 K, 15074 kPa, x2 = 0.1842): 801.36 ± 0.58 kg/m3
mass density (333.08 K, 16022 kPa, x2 = 0.1842): 802.27 ± 0.59 kg/m3
